Experimental data reported in patent US20090069373A1, “Quinoline Acids” (Wyeth, priority 2007, published 2009).

Tests used:
[1] = biological target: T1, human LXRβ (Homo sapiens, UniProt P55055); assay: Ligand-binding test procedure for human LXRβ (3H T0901317 competition, flash plates); conditions: for Binding ratio a/b: IC50 (μM) LXRα binding/IC50 (μM) LXRβ binding; for IC50: biotinylated hLXRβ, tracer 3H T0901317
T1 construct: biotin (biotinylated; biotinylation tag not described); made in house; host or cells: E. coli
T1 sequence (P55055 1-460): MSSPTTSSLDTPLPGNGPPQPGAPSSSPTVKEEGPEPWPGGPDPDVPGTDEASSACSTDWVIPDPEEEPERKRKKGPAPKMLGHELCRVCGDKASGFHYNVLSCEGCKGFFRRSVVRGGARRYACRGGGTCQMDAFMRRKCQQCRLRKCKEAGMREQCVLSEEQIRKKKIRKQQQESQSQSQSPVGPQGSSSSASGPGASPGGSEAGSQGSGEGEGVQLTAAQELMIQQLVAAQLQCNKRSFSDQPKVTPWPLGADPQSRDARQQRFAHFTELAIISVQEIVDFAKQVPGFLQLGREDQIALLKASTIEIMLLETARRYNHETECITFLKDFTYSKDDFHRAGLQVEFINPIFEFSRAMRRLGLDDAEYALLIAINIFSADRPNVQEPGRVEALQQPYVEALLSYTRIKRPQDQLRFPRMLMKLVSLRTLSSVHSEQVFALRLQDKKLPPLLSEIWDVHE

[2] = biological target: T2, human LXRα (Homo sapiens, UniProt Q13133); assay: Ligand-binding test procedure for human LXRα (3H T0901317 competition, flash plates); conditions: biotinylated hLXRα, tracer 3H T0901317
T2 construct: biotin (biotinylated; biotinylation tag not described); made in house; host or cells: E. coli
T2 sequence (Q13133 1-447): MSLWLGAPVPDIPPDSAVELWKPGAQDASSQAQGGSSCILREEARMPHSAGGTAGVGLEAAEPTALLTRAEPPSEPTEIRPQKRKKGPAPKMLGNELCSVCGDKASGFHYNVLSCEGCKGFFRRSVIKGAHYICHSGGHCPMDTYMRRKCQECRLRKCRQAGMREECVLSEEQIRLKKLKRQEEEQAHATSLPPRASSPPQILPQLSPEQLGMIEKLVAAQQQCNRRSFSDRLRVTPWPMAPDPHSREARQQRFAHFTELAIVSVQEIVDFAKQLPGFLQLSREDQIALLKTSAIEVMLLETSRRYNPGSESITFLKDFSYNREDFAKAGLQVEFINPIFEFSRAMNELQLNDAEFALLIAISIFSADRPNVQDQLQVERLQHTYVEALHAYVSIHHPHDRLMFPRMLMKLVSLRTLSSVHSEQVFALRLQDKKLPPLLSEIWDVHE
Outline: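 Competition binding of test ligands against 5 nM ³H tracer solution (pre-mix concentration) on biotinylated hLXRα from E. coli extract, captured on streptavidin flash plates (Bmax ~4000 cpm). Ligand dilution series made in DMSO. Incubated overnight at +4 °C; bound radioactivity counted after washing.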

Row | Compound | Binding ratio a/b [1] | IC50 [1] [nM] | IC50 [2] [nM]
1 | O=C(O)c1c[nH]c2c(NCc3cccc(-c4c(Cc5ccccc5)cnc5c(C(F)(F)F)cccc45)c3)cccc12 [Example 83, 7-({3-[3-benzyl-8-(trifluoromethyl)quinolin-4-yl]benzyl}amino)-1H-indole-3-carboxylic acid] | 3 | 292 | 802
2 | O=C(O)c1ccc(NCc2cccc(-c3c(Cc4ccccc4)cnc4c(C(F)(F)F)cccc34)c2)cc1Cl [Example 87, 4-({3-[3-benzyl-8-(trifluoromethyl)quinolin-4-yl]benzyl}amino)-2-chlorobenzoic acid] | 3 | 28 | 72
3 | Cc1cc(CC(=O)O)cc(NCc2cccc(-c3c(C)cnc4c(C(F)(F)F)cccc34)c2)c1C [Example 88, [3,4-dimethyl-5-({3-[3-methyl-8-(trifluoromethyl)quinolin-4-yl]benzyl}amino)phenyl]acetic acid] | 2 | 12700 | 31600
4 | O=C(O)c1ccc(Cl)cc1NCc1cccc(-c2c(Cc3ccccc3)cnc3c(C(F)(F)F)cccc23)c1 [Example 91, 2-({3-[3-benzyl-8-(trifluoromethyl)quinolin-4-yl]benzyl}amino)-4-chlorobenzoic acid] | 2 | 477 | 1080
5 | Cc1cccc(NCc2cccc(-c3c(Cc4ccccc4)cnc4c(C(F)(F)F)cccc34)c2)c1C(=O)O [Example 93, 2-({3-[3-benzyl-8-(trifluoromethyl)quinolin-4-yl]benzyl}amino)-6-methylbenzoic acid] | 2 | 906 | 2000
6 | Cc1ccc(C(=O)O)cc1NCc1cccc(-c2c(Cc3ccccc3)cnc3c(C(F)(F)F)cccc23)c1 [Example 94, 3-({3-[3-benzyl-8-(trifluoromethyl)quinolin-4-yl]benzyl}amino)-4-methylbenzoic acid] | 2 | 1370 | 3010
7 | CC(C)C[C@H](NC(=O)c1cccc(COc2cccc(-c3c(Cc4ccccc4)cnc4c(C(F)(F)F)cccc34)c2)c1)C(=O)O [Example 96, N-[3-({3-[3-benzyl-8-(trifluoromethyl)quinolin-4-yl]phenoxy}methyl)benzoyl]leucine] | 2 | 546 | 1160
8 | O=C(O)c1ccccc1NCc1cccc(-c2c(Cc3ccccc3)cnc3c(C(F)(F)F)cccc23)c1 [Example 97, 2-({3-[3-benzyl-8-(trifluoromethyl)quinolin-4-yl]benzyl}amino)benzoic acid] | 2 | 237 | 493
9 | COc1ccc(C(=O)O)cc1OCc1cccc(-c2c(Cc3ccccc3)cnc3c(C(F)(F)F)cccc23)c1 [Example 98, 3-({3-[3-benzyl-8-(trifluoromethyl)quinolin-4-yl]benzyl}oxy)-4-methoxybenzoic acid] | 2 | 2500 | 5200
10 | O=C(O)c1c[nH]c2ccc(NCc3cccc(-c4c(Cc5ccccc5)cnc5c(C(F)(F)F)cccc45)c3)cc12 [Example 99, 5-({3-[3-benzyl-8-(trifluoromethyl)quinolin-4-yl]benzyl}amino)-1H-indole-3-carboxylic acid] | 2 | 620 | 1240
11 | O=C(O)c1ccc(NCc2cccc(-c3c(Cc4ccccc4)cnc4c(C(F)(F)F)cccc34)c2)cc1 [Example 101, 4-({3-[3-benzyl-8-(trifluoromethyl)quinolin-4-yl]benzyl}amino)benzoic acid] | 2 | 183 | 354
12 | Cc1c(NCc2cccc(-c3c(Cc4ccccc4)cnc4c(C(F)(F)F)cccc34)c2)ccc(C(=O)O)c1C [Example 103, 4-({3-[3-benzyl-8-(trifluoromethyl)quinolin-4-yl]benzyl}amino)-2,3-dimethylbenzoic acid] | 2 | 3300 | 5040
13 | Cn1c(C(=O)O)cc2cccc(NCc3cccc(-c4c(Cc5ccccc5)cnc5c(C(F)(F)F)cccc45)c3)c21 [Example 105, 7-({3-[3-benzyl-8-(trifluoromethyl)quinolin-4-yl]benzyl}amino)-1-methyl-1H-indole-2-carboxylic acid] | 1 | 129 | 185
14 | Cc1cnc2c(C(F)(F)F)cccc2c1-c1cccc(CNc2cc(F)ccc2C(=O)O)c1 [Example 106, 4-fluoro-2-({3-[3-methyl-8-(trifluoromethyl)quinolin-4-yl]benzyl}amino)benzoic acid] | 1 | 5290 | 7280

Now from value to compound:

Row | Binding ratio a/b [1] | IC50 [1] [nM] | IC50 [2] [nM] | Compound
15 | 3 | 319 | 864 | O=C(O)c1ccc(OCc2cccc(-c3c(Cc4ccccc4)cnc4c(C(F)(F)F)cccc34)c2)c(F)c1 [Example 84, 4-({3-[3-benzyl-8-(trifluoromethyl)quinolin-4-yl]benzyl}oxy)-3-fluorobenzoic acid]
16 | 3 | 359 | 966 | O=C(O)c1ccc(OCc2cccc(-c3c(Cc4ccccc4)cnc4c(C(F)(F)F)cccc34)c2)c(Cl)c1 [Example 85, 4-({3-[3-benzyl-8-(trifluoromethyl)quinolin-4-yl]benzyl}oxy)-3-chlorobenzoic acid]
17 | 3 | 374 | 997 | O=C(O)Cc1cccc2ccc(OCc3cccc(-c4c(Cc5ccccc5)cnc5c(C(F)(F)F)cccc45)c3)cc12 [Example 86, [7-({3-[3-benzyl-8-(trifluoromethyl)quinolin-4-yl]benzyl}oxy)-1-naphthyl]acetic acid]
18 | 2 | 1600 | 3980 | O=C(O)c1c(F)cccc1OCc1cccc(-c2c(Cc3ccccc3)cnc3c(C(F)(F)F)cccc23)c1 [Example 89, 2-({3-[3-benzyl-8-(trifluoromethyl)quinolin-4-yl]benzyl}oxy)-6-fluorobenzoic acid]
19 | 2 | 358 | 872 | O=C(O)c1cccc(COc2cccc(-c3c(Cc4ccccc4)cnc4c(C(F)(F)F)cccc34)c2)c1 [Example 90, 3-({3-[3-benzyl-8-(trifluoromethyl)quinolin-4-yl]phenoxy}methyl)benzoic acid]
20 | 2 | 570 | 1280 | O=C(O)c1ccc(F)c(OCc2cccc(-c3c(Cc4ccccc4)cnc4c(C(F)(F)F)cccc34)c2)c1 [Example 92, 3-({3-[3-benzyl-8-(trifluoromethyl)quinolin-4-yl]benzyl}oxy)-4-fluorobenzoic acid]
21 | 2 | 1030 | 2220 | O=C(O)c1ccc2ccccc2c1OCc1cccc(-c2c(Cc3ccccc3)cnc3c(C(F)(F)F)cccc23)c1 [Example 95, 1-({3-[3-benzyl-8-(trifluoromethyl)quinolin-4-yl]benzyl}oxy)-2-naphthoic acid]
22 | 2 | 53 | 103 | O=C(O)c1ccc(COc2cccc(-c3c(Cc4ccccc4)cnc4c(C(F)(F)F)cccc34)c2)cc1 [Example 100, 4-({3-[3-benzyl-8-(trifluoromethyl)quinolin-4-yl]phenoxy}methyl)benzoic acid]
23 | 2 | 2820 | 4760 | Cc1ccc(OCc2cccc(-c3c(Cc4ccccc4)cnc4c(C(F)(F)F)cccc34)c2)c(C(=O)O)c1 [Example 102, 2-({3-[3-benzyl-8-(trifluoromethyl)quinolin-4-yl]benzyl}oxy)-5-methylbenzoic acid]
24 | 1 | 2150 | 3200 | O=C(O)c1cc(F)ccc1OCc1cccc(-c2c(Cc3ccccc3)cnc3c(C(F)(F)F)cccc23)c1 [Example 104, 2-({3-[3-benzyl-8-(trifluoromethyl)quinolin-4-yl]benzyl}oxy)-5-fluorobenzoic acid]
25 | 1 | 5540 | 7380 | O=C(O)Cc1cccc2ccc(OCc3cccc(-c4ccnc5c(C(F)(F)F)cccc45)c3)cc12 [Example 107, [7-({3-[8-(trifluoromethyl)quinolin-4-yl]benzyl}oxy)-1-naphthyl]acetic acid]
